From the NIST ThermoML archive (doi:10.1016/j.fluid.2006.08.020)

Columns and labels:
[1] = 298.1 K; 101.33 kPa; Liquid; Vibrating tube method
[2] = osmotic coefficient (dimensionless); mn = molality of the nth substance listed, in mol/kg; conditions: 298.15 K, Liquid, isopiestic method

CO [methanol]
Conditions | mass density [kg/m3]
[1] | 787.5

CO [methanol] + CC(=O)Nc1ccc(O)cc1
[2]
Conditions | osmotic coefficient
m1 = 0.0931 | 0.998
m1 = 0.1398 | 1.001
m1 = 0.2163 | 1.001
m1 = 0.3514 | 1
m1 = 0.5633 | 1.002
m1 = 1.006 | 1.009
m1 = 1.236 | 1.01
m1 = 1.4 | 1.015
m1 = 1.578 | 1.017
m1 = 1.866 | 1.02
m1 = 2.465 | 1.027
m1 = 2.762 | 1.033
m1 = 3.096 | 1.041
m1 = 3.56 | 1.055
m1 = 3.974 | 1.068
m1 = 4.175 | 1.075
m1 = 4.812 | 1.099
m1 = 5.316 | 1.12
m1 = 6.17 | 1.159
m1 = 6.418 | 1.171
m1 = 6.833 | 1.19
m1 = 7.073 | 1.21
